In patent US7820630B2, “Substituted indole-O-glucosides” (Janssen Pharmaceutica NV, priority 2003, dated 2010) one finds IC50 and inhibition data, which are given here for 20 compounds.

For one experiment, the target named is T1, human SGLT1 (Homo sapiens, UniProt P13866).
T1 construct: expressed in transfected cells
T1 sequence (P13866 1-664): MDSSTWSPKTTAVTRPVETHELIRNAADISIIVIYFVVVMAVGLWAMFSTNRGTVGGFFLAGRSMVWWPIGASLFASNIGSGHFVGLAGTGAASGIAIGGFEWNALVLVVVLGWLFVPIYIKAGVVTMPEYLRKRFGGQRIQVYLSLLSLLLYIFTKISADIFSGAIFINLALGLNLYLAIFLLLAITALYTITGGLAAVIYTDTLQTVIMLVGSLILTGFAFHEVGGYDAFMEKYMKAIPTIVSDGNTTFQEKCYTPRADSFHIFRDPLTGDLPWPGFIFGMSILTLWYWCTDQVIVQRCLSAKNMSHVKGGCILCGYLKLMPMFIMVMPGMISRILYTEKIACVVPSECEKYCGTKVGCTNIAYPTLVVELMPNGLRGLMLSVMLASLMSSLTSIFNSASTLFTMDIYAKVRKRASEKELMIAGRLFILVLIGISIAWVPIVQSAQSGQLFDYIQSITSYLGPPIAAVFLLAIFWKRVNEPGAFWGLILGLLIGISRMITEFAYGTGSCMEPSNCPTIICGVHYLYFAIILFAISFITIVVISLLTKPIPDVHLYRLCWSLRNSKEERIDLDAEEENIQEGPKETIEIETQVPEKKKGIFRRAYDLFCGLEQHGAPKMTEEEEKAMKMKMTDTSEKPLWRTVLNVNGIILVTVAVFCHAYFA
In words: Cell-based assay for sodium-dependent glucose transport (14C-AMG uptake), CHOK-SGLT1. The settings on record: CHO-K1 cells stably expressing human SGLT1; for IC50: Na-dependent 14C-AMG uptake; for inhibition at 10 µM: 10 μM compound, read-out: CHOK-SGLT1 % Inh. @ 10 μM. How it is done: (§1) Cloning of the human SGLT1 and human SGLT2 cDNAs and construction of the mammalian expression vector: The human SGLT1 cDNA (Genbank M24847) was cloned from human small intestine. Human SGLT2 cDNA (Genbank M95549) was cloned from human kidney. Both full cDNAs were subcloned into pcDNA and sequenced to verify the integrity of the construct.
(§2) Generation of CHO-K1 cells stably expressing human SGLT1 or human SGLT2: Transfection of CHO-K1 cells was performed using DMRIE-C reagent (Life Technologies, Gaithersburg, Md.). Transfectants were then selected in the presence of the antibiotic G418 (Gibco-BRL, Grand Island, N.Y.) at 400 μg/ml. Individual clones were then characterized using the functional assay described below.
(§3) Cell-based assay for sodium-dependent glucose transport: Cell lines stably expressing human SGLT1 or SGLT2 were then used for functional analysis of Na+-dependent glucose uptake. Briefly, cells were plated at a density of 65,000 cells per well in a 96-well plate and allowed to grow for 48 hours. Cells were subsequently washed one time with Assay Buffer (50 mM HEPES pH […], 5 mM KCl, 1 mM MgCl2, 1 mM CaCl2 and 137 mM NaCl) and treated with compound in the absence or presence of NaCl for 15 minutes. Cells were then labeled with ^14C-α-methylglucopyranoside (AMG, Sigma, St. Louis, Mo.), a non-metabolizable glucose analog specific for sodium-dependent glucose transporters as previously described (Peng, H. and Lever J. E. Post-transcriptional regulation of Na^+/glucose cotransporter (SGLT1) gene expression in LLC-PK1 cells. J Biol Chem 1995; 270:20536-20542.). After 2 hours the labeled cells were washed three times with ice-cold PBS. After aspiration, cells were solubilized using Microscint 20 (Packard, Meriden, Conn.) and Na-dependent ^14C-AMG uptake was quantified by measuring radioactivity. Plates were counted in a TopCount (Packard, Meriden, Conn.). Results are reported as the % inhibition or IC50 value from a representative experiment. Variability for the functional assay was typically within 20%.

A further experiment deals with T2, human SGLT2 (Homo sapiens, UniProt P31639).
T2 construct: expressed in transfected cells
T2 sequence (P31639 1-672): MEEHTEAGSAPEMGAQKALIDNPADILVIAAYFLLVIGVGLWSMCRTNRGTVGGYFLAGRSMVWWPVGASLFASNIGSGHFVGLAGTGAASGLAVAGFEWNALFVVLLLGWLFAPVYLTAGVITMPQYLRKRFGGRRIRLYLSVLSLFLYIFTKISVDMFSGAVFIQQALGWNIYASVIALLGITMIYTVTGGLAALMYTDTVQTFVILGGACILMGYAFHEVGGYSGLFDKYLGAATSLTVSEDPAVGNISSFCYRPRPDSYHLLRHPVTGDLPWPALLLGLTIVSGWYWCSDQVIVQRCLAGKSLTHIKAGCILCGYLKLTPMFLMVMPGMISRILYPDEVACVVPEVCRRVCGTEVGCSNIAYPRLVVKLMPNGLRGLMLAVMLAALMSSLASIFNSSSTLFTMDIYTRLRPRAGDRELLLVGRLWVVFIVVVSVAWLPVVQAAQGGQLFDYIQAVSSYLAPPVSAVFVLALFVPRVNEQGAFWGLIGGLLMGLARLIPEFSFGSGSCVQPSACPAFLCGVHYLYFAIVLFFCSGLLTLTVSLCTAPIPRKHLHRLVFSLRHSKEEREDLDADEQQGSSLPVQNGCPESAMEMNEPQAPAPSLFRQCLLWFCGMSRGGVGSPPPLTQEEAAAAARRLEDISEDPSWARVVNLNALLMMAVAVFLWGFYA
In words: Cell-based assay for sodium-dependent glucose transport (14C-AMG uptake), CHOK-SGLT2. The settings on record: CHO-K1 cells stably expressing human SGLT2; for IC50: Na-dependent 14C-AMG uptake; for inhibition at 10 µM: 10 μM compound, read-out: CHOK-SGLT2 % Inh. @ 10 μM. On the procedure: as §1, §2, §3

As for `CSc1ccc(Cc2c[nH]c3cccc(O[C@@H]4O[C@H](CO)[C@@H](O)[C@H](O)[C@H]4O)c23)cc1` [Example 27, 2-[3-(4-Methylsulfanyl-benzyl)-1H-indol-4-yloxy]-β-D-glucopyranoside], the IC50 at human SGLT1 was found to be 1310 nM; against human SGLT2 it was 26 nM.
In the case of `OC[C@H]1O[C@@H](Oc2cccc3[nH]cc(CCc4ccc5c(c4)OCCO5)c23)[C@H](O)[C@@H](O)[C@@H]1O` [Example 5, 2-{3-[2-(2,3-Dihydro-benzo[1,4]dioxin-6-yl)-ethyl]-1H-indol-4-yloxy}-β-D-glucopyranoside], the IC50 at human SGLT1 came out at 3380 nM; against human SGLT2 it was 146 nM.
As for `CCOc1ccc(Cc2c[nH]c3cccc(O[C@@H]4O[C@H](CO)[C@@H](O)[C@H](O)[C@H]4O)c23)cc1` [Example 25, 2-[3-(4-Ethoxy-benzyl)-1H-indol-4-yloxy]-β-D-glucopyranoside], at human SGLT1, the inhibition at 10 µM stood at 49%. The same compound displayed an IC50 against human SGLT2 of 100 nM.
In the case of `OC[C@H]1O[C@@H](Oc2cccc3[nH]cc(Cc4ccc5ccccc5c4)c23)[C@H](O)[C@@H](O)[C@@H]1O` [Example 29, 2-(3-Naphthalen-2-ylmethyl-1H-indol-4-yloxy)-β-D-glucopyranoside], the inhibition at 10 µM at human SGLT1 was determined as 68%. Also, at human SGLT2, the IC50 came to 260 nM.
With `COc1ccc(CCc2c[nH]c3cc(C)cc(O[C@@H]4O[C@H](CO)[C@@H](O)[C@H](O)[C@H]4O)c23)cc1` [Example 10, 2-{3-[2-(4-Methoxy-phenyl)-ethyl]-6-methyl-1H-indol-4-yloxy}-β-D-glucopyranoside], the IC50 was 2730 nM at human SGLT1 and 376 nM against human SGLT2.
Turning to `Cn1cc(CCc2ccc3c(c2)CCO3)c2c(O[C@@H]3O[C@H](CO)[C@@H](O)[C@H](O)[C@H]3O)cccc21` [Example 3, 2-{3-[2-(2,3-Dihydro-benzofuran-5-yl)-ethyl]-1-methyl-1H-indol-4-yloxy} β-D-glucopyranoside], the IC50 against human SGLT1 was 195 nM; on human SGLT2, 62 nM.
`CCc1ccc(Cc2c(C)[nH]c3cccc(O[C@@H]4O[C@H](CO)[C@@H](O)[C@H](O)[C@H]4O)c23)cc1` [Example 36, 2-[3-(4-Ethyl-benzyl)-2-methyl-1H-indol-4-yloxy]-β-D-glucopyranoside]: the figures for the inhibition at 10 µM on human SGLT1 and on human SGLT2 were 16% and 52%, respectively.
`CCc1ccc(Cc2c[nH]c3cccc(O[C@@H]4O[C@H](COC(=O)OC)[C@@H](O)[C@H](O)[C@H]4O)c23)cc1` [Example 12, 2-[3-(4-Ethyl-benzyl)-1H-indol-4-yloxy]-6-O-methoxycarbonyl-β-D-glucopyranoside] came in with a half-inhibitory concentration (IC50) against human SGLT2 of 660 nM.
For `OC[C@H]1O[C@@H](Oc2cccc3[nH]cc(CCc4ccc5c(c4)OCO5)c23)[C@H](O)[C@@H](O)[C@@H]1O` [Example 4, 2-[3-(2-Benzo[1,3]dioxol-5-yl-ethyl)-1H-indol-4-yloxy] β-D-glucopyranoside], the IC50 against human SGLT1 amounted to 823 nM; on human SGLT2, 98 nM.
In the case of `OC[C@H]1O[C@@H](Oc2cccc3[nH]cc(Cc4ccc(-c5ccccc5)cc4)c23)[C@H](O)[C@@H](O)[C@@H]1O` [Example 19, 2-(3-Biphenyl-4-ylmethyl-1H-indol-4-yloxy)-β-D-glucopyranoside], the inhibition at 10 µM on human SGLT1 came out at 63%. The compound also had a half-maximal inhibitory concentration (IC50) on human SGLT2 of 101 nM.
As to `CC(=O)OC[C@H]1O[C@@H](Oc2cccc3[nH]cc(CCc4ccc5c(c4)CCO5)c23)[C@H](O)[C@@H](O)[C@@H]1O` [Example 2, 2-{3-[2-(2,3-Dihydro-benzofuran-5-yl)-ethyl]-1H-indol-4-yloxy}-6-O-acetyl β-D-glucopyranoside], the IC50 is 1360 nM at human SGLT1 and 158 nM on human SGLT2.
In the case of `CCc1ccc(C(=O)c2c[nH]c3cccc(O[C@@H]4O[C@H](CO)[C@@H](O)[C@H](O)[C@H]4O)c23)cc1` [Example 38, 2-[3-(4-Ethylbenzoyl)-1H-indol-4-yloxy]-β-D-glucopyranoside], the inhibition at 10 µM on human SGLT1 amounted to 7%; on human SGLT2 it was 22%.
For the compound `CCOC(=O)OC[C@H]1O[C@@H](Oc2cccc3[nH]cc(Cc4ccc(CC)cc4)c23)[C@H](O)[C@@H](O)[C@@H]1O` [Example 13, 2-[3-(4-Ethyl-benzyl)-1H-indol-4-yloxy]-6-O-ethoxycarbonyl-β-D-glucopyranoside], the IC50 at human SGLT2 amounted to 650 nM.
Turning to `COc1ccc(-c2c[nH]c3cccc(O[C@@H]4O[C@H](CO)[C@@H](O)[C@H](O)[C@H]4O)c23)cc1` [Example 33, 2-[3-(4-Methoxy-phenyl)-1H-indol-4-yloxy]-β-D-glucopyranoside], the inhibition at 10 µM at human SGLT2 worked out at 37%.
Turning to `OC[C@H]1O[C@@H](Oc2cccc3[nH]cc(Cc4ccc5c(c4)CCO5)c23)[C@H](O)[C@@H](O)[C@@H]1O` [Example 30, 2-[3-(2,3-Dihydro-benzofuran-5-ylmethyl)-1H-indol-4-yloxy]-β-D-glucopyranoside], the inhibition at 10 µM on human SGLT1 is 30%. In addition, at human SGLT2, the half-inhibitory concentration (IC50) amounted to 1870 nM.
`OC[C@H]1O[C@@H](Oc2cccc3[nH]cc(CCc4ccc5ccccc5c4)c23)[C@H](O)[C@@H](O)[C@@H]1O` [Example 6, 2-[3-(2-Naphthalen-2-yl-ethyl)-1H-indol-4-yloxy]-β-D-glucopyranoside] returned a half-maximal inhibitory concentration (IC50) on human SGLT2 of 149 nM.
Turning to `OC[C@H]1O[C@@H](Oc2cccc3[nH]cc(Cc4ccc(Cl)cc4)c23)[C@H](O)[C@@H](O)[C@@H]1O` [Example 28, 2-[3-(4-Chloro-benzyl)-1H-indol-4-yloxy]-β-D-glucopyranoside], the inhibition at 10 µM at human SGLT1 amounted to 58%. The compound also yielded an IC50 at human SGLT2 of 346 nM.
Turning to `CCCc1ccc(Cc2c[nH]c3cccc(O[C@@H]4O[C@H](CO)[C@@H](O)[C@H](O)[C@H]4O)c23)cc1` [Example 17, 2-[3-(4-propyl-benzyl)-1H-indol-4-yloxy]-β-D-glucopyranoside], the half-maximal inhibitory concentration (IC50) on human SGLT2 was 49 nM.
On to `OC[C@H]1O[C@@H](Oc2cccc3[nH]cc(Cc4ccc(Oc5ccccc5)cc4)c23)[C@H](O)[C@@H](O)[C@@H]1O` [Example 26, 2-[3-(4-Phenoxy-benzyl)-1H-indol-4-yloxy]-β-D-glucopyranoside], for which inhibition at human SGLT2 was half-maximal at 420 nM (IC50).
The compound `CCc1ccc(Cc2cn(C(C)C)c3cccc(O[C@@H]4O[C@H](CO)[C@@H](O)[C@H](O)[C@H]4O)c23)cc1` [Example 31, 2-[3-(4-Ethyl-benzyl)-1-isopropyl-1H-indol-4-yloxy]-β-D-glucopyranoside] came in with an IC50 on human SGLT2 of 5110 nM.
